Source: article PMC10301432, “Antiplasmodial, Trypanocidal, and Genotoxicity In Vitro Assessment of New Hybrid α,α-Difluorophenylacetamide-statin Derivatives” (Pharmaceuticals, 2023)
pEC50: −log10 of the molar value. Where two headings read alike, the source gives them in different places.

What was measured:
[1] = system: Salmonella enterica serovar Typhimurium TA100; test: Salmonella/microsome assay, TA100
in vitro [2] = assay type: cell-based; settings: human
Experimental: Human hepatocellular carcinoma (HepG2) and Chinese Hamster Ovary (CHO-K1) cells obtained from the American Type Culture Collection (Manassas, VA, USA) were cultured in Eagle’s medium (MEM, Gibco®, Waltham, MA, USA) containing 10% fetal bovine serum (FBS) plus 100 µg/mL streptomycin and 100 µg/mL penicillin at 37 °C in a 5% CO2 atmosphere. Logarithmic-phase cells were used in all the experiments.
Fresh HepG2 and CHO-K1 cells were seeded at a density of 1 × 10^4/well. […] Briefly, after treatment, the culture medium was replaced by 90 μL fresh culture medium and 10 μL WST-1 reagent and incubated at 37 °C and 5% CO2 for 3 h. The absorbance was then measured at 440 nm according to the kit protocol.

[3] = system: Salmonella enterica serovar Typhimurium TA104; test: Salmonella/microsome assay, TA104
Experimental: (§1) Salmonella enterica serovar Typhimurium (S. typhimurium) strains TA97, TA98, TA100, TA104 and TA102 from the authors’ stock were used as described in the mutagenicity assay.
(§2) To determine the cytotoxic effects, after 30 min pre-incubation, the assay mixtures were diluted in 0.9% NaCl (w/v) to obtain a suspension containing 2 × 10^2 cells/mL. […] The plates were then incubated at 37 °C for 24 h and the colonies counted. All the experiments were conducted in triplicate and were repeated at least twice. Statistical differences between the groups were analyzed by a two-way ANOVA (p < 0.05) and Tukey’s post hoc test.

[4] = Salmonella/microsome assay, TA104; settings: Salmonella enterica serovar Typhimurium
Experimental: as §1, §2

in vitro [5] = assay type: cell-based; settings: mouse
Experimental: Primary cultures of cardiac cells (CC) were obtained as reported in [50]. The cultures were sustained in Dulbecco’s modified Eagle’s medium (DMEM) supplemented with 10% horse serum, 5% fetal bovine serum (FBS), 2.5 mM CaCl2, 1 mM L-glutamine, and 2% chicken embryo extract. Cell cultures were maintained at 37 °C in an atmosphere of 5% CO2, and assays were run at least three times in triplicate.
Cardiac cell cultures were incubated for 24 h at 37 °C with different concentrations of the compounds (up to 200 µM) diluted in DMEM (without phenol red). Their morphology and spontaneous contractibility were evaluated by light microscopy and then the cellular viability was determined by the PrestoBlue® assay. For this colorimetric bioassay, PrestoBlue® (Invitrogen, Waltham, MA, USA) was added to each well (using a 10:1 medium/dye), the plate was further incubated for 24 h followed by optical density (OD) measurement performed at 570 and 600 nm, as recommended by the manufacturer.

[6] = system: Salmonella enterica serovar Typhimurium TA102
[7] = system: trypomastigote forms of T. cruzi (Y strain); test: Trypanocidal activity on bloodstream trypomastigotes; assay type: cell-based, Trypanosoma cruzi; settings: Trypanosoma cruzi; bloodstream trypomastigotes, Y strain; 24 h at 37 °C
Experimental: Bloodstream trypomastigote forms (BT) of the Y strain were obtained from infected albino Swiss mice at the peak of parasitemia, isolated by differential centrifugation and resuspended in DMEM to a parasite concentration of 10^7 cells/mL in the presence of 10% of mouse blood. This suspension (100 µL) was added in the same volume of 13 (a–d) and 14 (a–d) previously prepared at twice the desired final concentrations.

[8] = system: intracellular forms of T. cruzi (Tulahuen strain transfected with β-galactosidase); test: Activity against intracellular T. cruzi in L929 cells; assay type: cell-based, Trypanosoma cruzi; settings: 96 h; for pEC50: intracellular forms, Tulahuen strain
Experimental: Tissue culture-derived trypomastigotes (Tulahuen strain expressing the E. coli β-galactosidase gene) were maintained in L929 cell lines and collected from the supernatant after 96 h of parasite infection, following previously established protocols. Briefly, after 24 h of L929 platting (4 × 10^3 cells/well), the cultures were incubated with trypomastigotes (10:1 parasite/host cell ratio) for 2 h at 37 °C. Then, the cell cultures were rinsed to remove non-internalized parasites and then further incubated for 24 h at 37 °C. Then the infected cultures were followed using two sequential protocols. […] After this period, 50 µL chlorophenol red glycoside (500 µM) in 0.5% Nonidet P40 was added to each well and the plate was incubated for more than 18 h at 37 °C, after which the absorbance was measured at 570 nm. […] Controls with untreated and Bz-treated cells are run in parallel. The results were expressed as the percent difference in the reduction between treated and untreated cells.

## CC(=O)Nc1ccc(C)cc1C(F)(F)C(=O)NCC[C@@H]1C[C@H](CC(=O)OC(C)(C)C)OC(C)(C)O1 [Compound 13b, tert-Butyl 2-((4R,6R)-6-(2-(2-(2-acetamido-5-methylphenyl)-2,2-difluoroacetamido)ethyl)-2,2-dimethyl-1,3-dioxan-4-yl)acetate]
[1]; +S9, 3 µM
  revertant His+ colonies TA100: 179 ± 38
[1]; +S9, 15 µM
  revertant His+ colonies TA100: 188 ± 23
[1]; +S9, 30 µM
  revertant His+ colonies TA100: 228 ± 46
[1]; +S9, 150 µM
  revertant His+ colonies TA100: 260 ± 32
[1]; +S9, 300 µM
  revertant His+ colonies TA100: 306 ± 60
[1]; +S9, 1500 µM
  revertant His+ colonies TA100: 333 ± 45
[1]; −S9, 3 µM
  revertant His+ colonies TA100: 145 ± 11
[1]; −S9, 15 µM
  revertant His+ colonies TA100: 146 ± 1
[1]; −S9, 30 µM
  revertant His+ colonies TA100: 145 ± 17
[1]; −S9, 150 µM
  revertant His+ colonies TA100: 143 ± 40
[1]; −S9, 300 µM
  revertant His+ colonies TA100: 144 ± 8
[1]; −S9, 1500 µM
  revertant His+ colonies TA100: 178 ± 10
In vitro [2]
  CC50 at 24 h: > 1000 µM
[3]; +S9, 3 µM
  revertant His+ colonies TA104: 355 ± 12
[3]; +S9, 15 µM
  revertant His+ colonies TA104: 356 ± 14
[3]; +S9, 30 µM
  revertant His+ colonies TA104: 421 ± 67
[3]; +S9, 150 µM
  revertant His+ colonies TA104: 447 ± 45
[3]; +S9, 300 µM
  revertant His+ colonies TA104: 449 ± 18
[3]; +S9, 1500 µM
  revertant His+ colonies TA104: 510 ± 13
[3]; −S9, 3 µM
  revertant His+ colonies TA104: 210 ± 11
[3]; −S9, 15 µM
  revertant His+ colonies TA104: 267 ± 15
[3]; −S9, 150 µM
  revertant His+ colonies TA104: 326 ± 13
[3]; −S9, 300 µM
  revertant His+ colonies TA104: 350 ± 22
[3]; −S9, 1500 µM
  revertant His+ colonies TA104: 400 ± 11
[4]; S. typhimurium TA104 with S9 mix, LC50 (bacterial cytotoxicity) TA104, presence of S9 mix
  CC50 at 30 min: > 1500 µM
[4]; S. typhimurium TA104 without S9 mix, pH 7.4, LC50 (bacterial cytotoxicity) TA104, absence of S9 mix
  CC50 at 30 min: > 1500 µM
In vitro [5]
  CC50 at 24 h: > 500 µM
[6]; +S9, 3 µM
  revertant His+ colonies TA102: 365 ± 37
[6]; +S9, 15 µM
  revertant His+ colonies TA102: 386 ± 42
[6]; +S9, 30 µM
  revertant His+ colonies TA102: 403 ± 19
[6]; +S9, 150 µM
  revertant His+ colonies TA102: 396 ± 31
[6]; +S9, 300 µM
  revertant His+ colonies TA102: 372 ± 40
[6]; +S9, 1500 µM
  revertant His+ colonies TA102: 399 ± 18
[6]; −S9, 3 µM
  revertant His+ colonies TA102: 388 ± 20
[6]; −S9, 15 µM
  revertant His+ colonies TA102: 393 ± 18
[6]; −S9, 30 µM
  revertant His+ colonies TA102: 423 ± 11
[6]; −S9, 150 µM
  revertant His+ colonies TA102: 503 ± 23
[6]; −S9, 300 µM
  revertant His+ colonies TA102: 543 ± 39
[6]; −S9, 1500 µM
  revertant His+ colonies TA102: 560 ± 41
[7]
  pEC50: < 3.30
[8]; Trypanosoma cruzi, TULAHUEN, L929, 96 h
  pEC50: ≤ 4.30
[8]; fixed concentration 10 µM
  10µM (% of Parasite Lysis): 25.41 ± 10.90%
[8]
  pEC50: < 4.30
